Experimental data published in US20200121589A1, “COMPOSITIONS FOR DRUG DELIVERY AND METHODS OF USE THEREOF” (Viramal Limited, priority 2017, published 2020).
Where “and” joins values, the source holds several entries; their conditions need not be identical. Identical values can stand only once.

Experiments:
[1] = Danazol concentrations in serum, peritoneal fluid and peritoneal tissue after oral or vaginal administration to female human subjects; assay type: in vivo; details: for Systemic, Average / Systemic: serum
Method: The following example illustrates an administering of either a vaginal or oral formulation of danazol to female human subjects. The vaginal formulation was prepared as described above in Example 2. The oral formulation contained a total dose of 200 mg of danazol present in a capsule body of titanium dioxide and gelatin, and formulated with starch, lactose, talcum and magnesium stearate.
Subjects were administered danazol daily for five days. Six subjects were given a total dose of 600 mg of the oral danazol formulation (3×200 mg) once daily for five days. Seven subjects were given the vaginal formulation containing a total of 100 mg danazol. Samples were then taken from each subject in order to determine the concentration of danazol present systemically, in peritoneal fluid, and in peritoneal tissue. In order to quantify the amount of danazol present systemically, serum samples were collected from each subject and analyzed as described above in Example 3. In order to determine the amount of danazol present in the peritoneal fluid and tissue, endometrial lesions or suspected lesions were harvested, and the amount of danazol present in the samples was quantified as described in Example 3.

[2] = in vivo; cited from earlier work
[3] = Oral - 600 mg Danazol daily for five days, average of six subjects
[4] = Oral - 600 mg Danazol daily for five days, individual subject
[5] = Vaginal - 100 mg Danazol daily for five days, average of seven subjects
[6] = Vaginal - 100 mg Danazol daily for five days, individual subject

C#C[C@]1(O)CC[C@H]2[C@@H]3CCC4=Cc5oncc5C[C@]4(C)[C@H]3CC[C@@]21C [Danazol]
Peritoneal Fluid, Average [1, 3]: 83.4 ng/mL | Peritoneal Fluid [1, 4]: 134 ng/mL and 16.2 ng/mL and 132.8 ng/mL and 19.2 ng/mL and 130.7 ng/mL and 67.7 ng/mL | Systemic, Average [1, 3]: 156.5 ng/mL | Systemic [1, 4]: 209 ng/mL and 141.3 ng/mL and 167 ng/mL and 109.7 ng/mL and 198.3 ng/mL and 113.4 ng/mL | Estimated Peritoneal Tissue, Average [1, 5]: 16.5 ng/mg | Peritoneal Fluid, Average [1, 5]: 1.2 ng/mL | Estimated Peritoneal Tissue [1, 6]: 8.4 ng/mg and 13.2 ng/mg and 13.6 ng/mg and 17.2 ng/mg and 16.4 ng/mg and 29.2 ng/mg and 17.6 ng/mg | Peritoneal Fluid [1, 6]: 1 ng/mL (4×) and 1.2 ng/mL and 1.6 ng/mL and 1.8 ng/mL | Systemic, Average [1, 5]: 4.1 ng/mL | Systemic [1, 6]: 2.1 ng/mL and 3.3 ng/mL and 3.4 ng/mL and 4.3 ng/mL and 4.1 ng/mL and 7.3 ng/mL and 4.4 ng/mL | half-life [2]: 9.7 h
